Reference: patent US20240108738A1, “BICYCLIC PEPTIDE LIGANDS SPECIFIC FOR NK CELLS” (Bicycle Tx Limited, priority 2021, published 2024)
Read-outs that look alike come from different tables or passages of the source. Numbered stars: 1 amine (or outer) side, 2 acyl side, 3 side chain; on linkers, the order of the positions; unused ones are H or OH. Bridge positions count the residues as written; N and C are the ends. Square brackets hold non-standard residues; d marks the D form. Peptide text beside a SMILES is read from it. * marks the point of attachment. TATA = O=C(CC[*:1])N1CN(C(=O)CC[*:2])CN(C(=O)CC[*:3])C1; Biotin = O=C1N[C@H]2[C@H](CS[C@H]2CCCCC(=O)*)N1; Cba = N[C@@H](CC1CCC1)C(=O)O; Sar = CNCC(=O)O

Experiments:
[1] = target: T1, CD16a/FCgRIIIa (F158 variant) (Homo sapiens, UniProt P08637); assay: CD16a/FCgRIIIa HTRF assay (IgG competition on HEK293 cells); type: binding
T1 construct: host or cells: HEK293

[2] = target: CD16a (V Variant) (Homo sapiens, UniProt P08637, F176V); assay: FcγRIII (CD16a) SPR (Method A and/or Method B), V variant; type: binding
[3] = target: CD16a (F Variant) (Homo sapiens, UniProt P08637); assay: FcγRIII (CD16a) SPR (Method A and/or Method B), F variant; type: binding
[4] = target: T2, human NKp46-his tagged protein (Homo sapiens, UniProt O76036); assay: NKp46 Fluorescence Polarization (FP) competition binding assay, tracer BCY15035
T2 construct: His tag; purchased AcroBiosystems

[5] = target: T3, Fc-tagged human NKp46 (Homo sapiens, UniProt O76036); assay: NKp46 SPR assay (Method 1 and/or Method 2); type: binding; conditions: SPR Method 1 and/or Method 2, Table 3B
T3 construct: purchased ACROBiosystems NC1-H5257
Method in brief: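 Method 1: biotinylated Avi-tag NKp46-Fc on streptavidin chip, peptides to 100-5000 nM top in PBS/0.05% Tween 20, 0.5% DMSO; 1:1 kinetic fit with mass transport. Method 2: NKp46-Fc captured by anti-Fc, PBS-P+ 2% DMSO; steady-state or kinetic 1:1 fit. Both 25° C, 50 μl/min, 60 s association.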

[6] = tested on: human CD16a V176 variant; assay: IgG competition assay (AlphaScreen), V variant; type: binding; conditions: N-terminally biotinylated CD16a V176 10 nM, mouse IgG2a acceptor beads
[7] = SPR Method A and/or B, Table 6B, read-out: Kd (nM) (V Variant)
[8] = SPR Method A and/or B, Table 6B, read-out: Kd (nM) (F Variant)

Kd [2, 7] [nM] | Kd [3, 8] [nM] | Ki [4] [nM] | SMILES | further results
3710 |  |  | CC(C)C[C@@H]1NC(=O)[C@@H]2CCCN2C(=O)[C@H](Cc2c[nH]cn2)NC(=O)[C@@H]2CSCCC(=O)N3CN(CN(C3)C(=O)CCSC[C@H](NC(=O)[C@H](C)N)C(=O)N3CCC[C@H]3C(=O)N3CCC[C@H]3C(=O)N[C@@H]([C@@H](C)O)C(=O)N[C@@H](C(C)C)C(=O)N[C@@H](Cc3ccc(O)cc3)C(=O)N2)C(=O)CCSC[C@@H](C(=O)N[C@@H](C)C(N)=O)NC(=O)[C@H](CC(=O)O)NC1=O [BCY11808, A-(SEQ ID NO: 60)-A] | IC50 ([1]; HTRF, competition with IgG-d2 on HEK293 cells expressing Terbium-labelled CD16a, 2 h at RT, read-out: IC50): 9440 nM
832 | 3610 |  | CC(C)C[C@@H]1NC(=O)[C@@H]2CCCN2C(=O)[C@H](Cc2c[nH]cn2)NC(=O)[C@@H]2CSCCC(=O)N3CN(CN(C3)C(=O)CCSC[C@H](NC(=O)[C@H](C)N)C(=O)N3CCC[C@H]3C(=O)N3CCC[C@H]3C(=O)N[C@@H](CCC(=O)O)C(=O)N[C@@H](C(C)C)C(=O)N[C@@H](Cc3ccc(O)cc3)C(=O)N2)C(=O)CCSC[C@@H](C(=O)N[C@@H](C)C(N)=O)NC(=O)[C@H](CC(=O)O)NC1=O [BCY11810, A-(SEQ ID NO: 171)-A] (H-ACPPEVYCHPLDCA-NH2; linker 2-8-13 via TATA) | 
1230 | 8240 |  | CC(C)C[C@@H]1NC(=O)[C@@H]2CCCN2C(=O)[C@H](Cc2c[nH]cn2)NC(=O)[C@@H]2CSCCC(=O)N3CN(CN(C3)C(=O)CCSC[C@H](NC(=O)[C@H](C)N)C(=O)N3CCC[C@H]3C(=O)N3CCC[C@H]3C(=O)N[C@@H](CCC(=O)O)C(=O)N[C@@H](C(C)C)C(=O)N[C@@H](Cc3c[nH]c4ccccc34)C(=O)N2)C(=O)CCSC[C@@H](C(=O)N[C@@H](C)C(N)=O)NC(=O)[C@H](CC(=O)O)NC1=O [BCY11811, A-(SEQ ID NO: 172)-A] (H-ACPPEVWCHPLDCA-NH2; linker 2-8-13 via TATA) | 
2400 | 11800 |  | CC(C)C[C@@H]1NC(=O)[C@@H]2CCCN2C(=O)[C@H](Cc2c[nH]cn2)NC(=O)[C@@H]2CSCCC(=O)N3CN(CN(C3)C(=O)CCSC[C@H](NC(=O)[C@H](C)N)C(=O)N3CCC[C@H]3C(=O)N3CCC[C@H]3C(=O)N[C@@H](CCC(N)=O)C(=O)N[C@@H](C(C)C)C(=O)N[C@@H](Cc3ccc(O)cc3)C(=O)N2)C(=O)CCSC[C@@H](C(=O)N[C@@H](C)C(N)=O)NC(=O)[C@H](CC(=O)O)NC1=O [BCY11812, A-(SEQ ID NO: 173)-A] (H-ACPPQVYCHPLDCA-NH2; linker 2-8-13 via TATA; C-terminus assumed) | 
4000 | 1000 |  | CC(C)C[C@@H]1NC(=O)[C@@H]2CCCN2C(=O)[C@H](Cc2c[nH]cn2)NC(=O)[C@@H]2CSCCC(=O)N3CN(CN(C3)C(=O)CCSC[C@H](NC(=O)[C@H](C)N)C(=O)N3CCC[C@H]3C(=O)N3CCC[C@H]3C(=O)N[C@@H](CCC(=O)O)C(=O)N[C@@H](C(C)C)C(=O)N[C@@H](Cc3c[nH]c4ccccc34)C(=O)N2)C(=O)CCSC[C@@H](C(=O)N[C@@H](C)C(=O)N(C)CC(=O)N(C)CC(=O)N(C)CC(=O)N(C)CC(=O)N(C)CC(=O)N(C)CC(=O)N[C@@H](CCCCNC(=O)CCCC[C@@H]2SC[C@@H]3NC(=O)N[C@@H]32)C(N)=O)NC(=O)[C@H](CC(=O)O)NC1=O [BCY12622, A-(SEQ ID NO: 174)-A-[Sar6]-[KBiot]] (H-ACPPEVWCHPLDCA[Sar][Sar][Sar][Sar][Sar][Sar]K(Biotin)-NH2; linker 2-8-13 via TATA; N-terminus assumed) | 
 |  | 17 | CC(C)C[C@@H]1NC(=O)[C@H](Cc2ccc(O)cc2)NC(=O)[C@H](CC(=O)O)NC(=O)[C@@H]2CCCN2C(=O)[C@H](CC2CCC2)NC(=O)[C@H](Cc2ccc(O)cc2)NC(=O)[C@@H](NC(=O)[C@H](C)N)CSCCC(=O)N2CN3CN(C2)C(=O)CCSC[C@@H](C(=O)N[C@@H](C)C(N)=O)NC(=O)[C@H](Cc2ccc(O)cc2)NC(=O)[C@H](CCC(=O)O)NC(=O)[C@H](CC(=O)O)NC(=O)CNC(=O)[C@H](CSCCC3=O)NC1=O [BCY15639, A-(SEQ ID NO: 16)-A] (H-ACY[Cba]PDYLCGDEYCA-NH2; linker 2-9-14 via TATA) | 
 |  | 1620 | CC(C)C[C@@H]1NC(=O)[C@H](Cc2ccc(O)cc2)NC(=O)[C@@H](NC(=O)[C@H](C)N)CSCCC(=O)N2CN3CN(C2)C(=O)CCSC[C@@H](C(=O)N[C@@H](C)C(N)=O)NC(=O)[C@H](Cc2ccc(O)cc2)NC(=O)[C@H](CCC(=O)O)NC(=O)[C@H](CC(=O)O)NC(=O)CNC(=O)[C@H](CSCCC3=O)NC(=O)[C@H](CC(C)(C)C)NC(=O)[C@H](Cc2c[nH]c3ccccc23)NC(=O)[C@H](CC(=O)O)NC(=O)[C@@H]2CCCN2C1=O [BCY15648, A-(SEQ ID NO: 24)-A] | 
 |  | 16 | CC(C)C[C@@H]1NC(=O)[C@H](Cc2ccc(O)cc2)NC(=O)[C@H](CC(=O)O)NC(=O)[C@@H]2CCCN2C(=O)[C@H](CC(C)C)NC(=O)[C@H](Cc2ccc(O)cc2)NC(=O)[C@@H](NC(=O)[C@H](C)N)CSCCC(=O)N2CN3CN(C2)C(=O)CCSC[C@H](NC1=O)C(=O)N[C@H](C)C(=O)N[C@@H](CC(=O)O)C(=O)N[C@@H](CCC(=O)O)C(=O)N[C@@H](Cc1ccc(O)cc1)C(=O)N[C@H](C(=O)N[C@@H](C)C(N)=O)CSCCC3=O [BCY15650, A-(SEQ ID NO: 26)-A] (H-ACYLPDYLC[dA]DEYCA-NH2; linker 2-9-14 via TATA; N-terminus assumed) | Kd [5]: 10 ± 3 nM
 |  |  | C#CCCC(=O)NCCCC[C@H](NC(=O)[C@H](C)NC(=O)[C@@H]1CSCCC(=O)N2CN3CN(C2)C(=O)CCSC[C@H](NC(=O)[C@H](C)N)C(=O)N2CCC[C@H]2C(=O)N2CCC[C@H]2C(=O)N[C@@H]([C@@H](C)O)C(=O)N[C@@H](C(C)C)C(=O)N[C@@H](Cc2ccc(O)cc2)C(=O)N[C@@H](CSCCC3=O)C(=O)N[C@@H](Cc2c[nH]cn2)C(=O)N2CCC[C@H]2C(=O)N[C@@H](CC(C)C)C(=O)N[C@@H](CC(=O)O)C(=O)N1)C(N)=O [BCY15685, A-(SEQ ID NO: 60)-A-[K(PYA)]] | IC50 [6]: 3480 nM
 |  | 10 | CC(=O)N[C@H]1CSCCC(=O)N2CN3CN(C2)C(=O)CCSC[C@H](NC(=O)[C@H](CC(C)C)NC(=O)[C@H](Cc2ccc(O)cc2)NC(=O)[C@H](CC(=O)O)NC(=O)[C@@H]2CCCN2C(=O)[C@H](CC2CCC2)NC(=O)[C@H](Cc2ccc(O)cc2)NC1=O)C(=O)N[C@H](C)C(=O)N[C@@H](CC(=O)O)C(=O)N[C@@H](CCC(=O)O)C(=O)N[C@@H](Cc1ccc(O)cc1)C(=O)N[C@H](C(N)=O)CSCCC3=O [BCY16133, Ac-(SEQ ID NO: 40)] (Ac-CY[Cba]PDYLC[dA]DEYC-NH2; linker 1-8-13 via TATA; C-terminus assumed) | 
 |  |  | CC(C)C[C@@H]1NC(=O)CNC(=O)[C@H](C(C)C)NC(=O)[C@@H](NC(=O)[C@H](C)N)CSCc2nc3nc(n2)CSC[C@H](NC(=O)[C@@H]2CCCN2C(=O)CNC(=O)[C@H](CC(C)C)NC(=O)[C@H](CCC(=O)O)NC(=O)[C@H](CCC(=O)O)NC1=O)C(=O)N[C@@H](CO)C(=O)N[C@@H](CC(=O)O)C(=O)N[C@@H](CC(C)C)C(=O)N[C@H](C(=O)N[C@@H](C)C(N)=O)CSC3 [BCY16493, A-(SEQ ID NO: 62)-A] | IC50 [1]: 4790 nM; Kd [2]: 7330 nM
 |  |  | CC(C)C[C@@H]1NC(=O)CNC(=O)[C@H](C(C)C)NC(=O)[C@@H](N)CSCc2nc3nc(n2)CSC[C@H](NC(=O)[C@@H]2CCCN2C(=O)CNC(=O)[C@H](CC(C)C)NC(=O)[C@H](CCC(=O)O)NC(=O)[C@H](CCC(=O)O)NC1=O)C(=O)N[C@@H](CO)C(=O)N[C@@H](CC(=O)O)C(=O)N[C@@H](CC(C)C)C(=O)N[C@H](C(N)=O)CSC3 [BCY16494, (SEQ ID NO: 62)] | Kd [2]: 2820 nM; Kd [3]: 2870 nM
 |  |  | C[C@H](N)C(=O)N[C@H]1CSCc2nc3nc(n2)CSC[C@H](NC(=O)[C@@H]2CCCN2C(=O)[C@H](CCC(=O)O)NC(=O)[C@H](CO)NC(=O)[C@@H]2C[C@@H](O)CN2C(=O)[C@H](Cc2c[nH]cn2)NC(=O)[C@H](Cc2c[nH]c4ccccc24)NC(=O)[C@H](CCCNC(=N)N)NC1=O)C(=O)NCC(=O)N[C@@H](C)C(=O)N[C@@H](Cc1c[nH]c2ccccc12)C(=O)N[C@H](C(=O)N[C@@H](C)C(N)=O)CSC3 [BCY20383, A-(SEQ ID NO: 228)-A] | IC50 [1]: 1110 nM
